Experimental data as given in patent publication US4226885A, “Guanylhydrazones and medicaments containing them” (Choay S.A., priority 1977, dated 1980).
Like-named read-outs stand apart in the source and are kept apart here.

Key:
Lipidium sativum = assay: Inhibition of the growth of the root meristem of Lipidium sativum (vegetable cells); type: in vivo; details: for inhibiting activity (root growth, in words): Lipidium sativum test
Description: The test of the inhibition of the growth of the root meristem of Lipidium sativum was used, which test is used to evaluate the cytostatic action of series of drugs. It consists in placing germinated grains of Lipidium sativum in 15 ml. of aqueous solution containing 1% of methyl cellulose, in which the guanyl hydrazones are placed in suspension.
After leaving in darkness for 24 hours at the temperature of 27° C., the elongation of the root in comparison with that of a control batch (Li Lipidium sativum grain in methyl cellulose medium) is determined.
The validity of the linear model was evaluated with the aid of test F: [formula]
In the example supplied, for the calculation of the confidence interval for α=0.05, one finds:
that is to say one has five chances per hundred, if one repeats another series of measurements, of finding a pI 50 outside this limit.

[1] = mouse; cited from earlier work
[2] = system: fibro-sarcomas induced by methyl cholanthrene, tumour cells in culture; assay: Tumour culture: inhibition of multiplication of methyl cholanthrene-induced fibro-sarcoma cells in vitro; type: cell-based; details: Rattus norvegicus; for inhibition at 10 µM: 10^-5 molar; for inhibition at 1 µM: 10^-6 molar
Description: (§1) A supplementary study of the activity of these products upon the inhibition of growth of animal cells was effected by tumour culture. On fibro-sarcomas induced by methyl cholanthrene (O. Flandre et coll. C.R. Jour. biol. 1966. 160 152) the products were tested: upon tumour cells in culture "in vitro" and upon treated rats.
1. upon tumour cells in culture "in vitro" the results of the tested products are reported in Table IV below, which expresses the cellular count at the 72nd hour after sub-culture, in the presence of the substances to be studied.
The results are expressed in percentage of diminution of the number of cells in comparison with the control.
The determinations were effected with the products at three molar concentrations: 10^-4, 10^-5 and 10^-6.
This concerns fibro-sarcomas induced by methyl cholanthrene according to a technique described by O. FLANDRE, I. CIURANA, J. SECCHI and M. DAMON: Reports of the Sittings of the Biology Society, Volume 160, No. 1, 1966, page 152.
The products can be tested either upon tumour cells cultivated in vitro, or upon the rat treated by tumour cell injections either in situ or by intraperitoneal injection.
The preliminary experiments carried out with the substances according to the invention, tested on tumour cells cultivated in vitro, disclose a retardation of the cellular multiplication.

[3] = target: rat liver monoaminoxydase; assay: I.M.A.O. activity: inhibition of rat liver monoaminoxydase (spectrophotometric, kynuramine as substratum); type: biochemical; details: 50% inhibition
Description: The inhibiting activity of the envisaged guanyl hydrazones in relation to rat liver monoaminoxydase was determined by means of a spectrophotometric method, using kynuramine as substratum.
The I.M.A.O. activity was determined for various concentrations of guanyl hydrazone. The concentrations for which one obtains 50% inhibition relate to the pI 50, which is calculated as follows: […]
For each concentration about ten experiments are carried out, from which the mean activity Yi is determined. Only concentrations giving a Yi between 15 and 85% of activity are retained.
Assume N concentrations Ci retained; to each Ci there correspond a certain number ni of experiments and a mean activity Yi.
Assume in all NT=Σni experiments.
(a) The equation of the straight line Yi =f (Ci) is calculated by the method of least squares.
To this straight line there are attached different statistic tests to express its validity, as straight line only.
Then the corresponding concentration is deduced for Y=50%.
(b) Statistical calculations permit evaluation of the legitimacy of the linear model. These calculations take account of all the points, that is to say NT experiments, whereas the straight line is determined from the mean activities only, which means that these calculations take account of the dispersion which affects every average.
(c) Calculation of the confidence interval for α=0.05.
The pI50 s of the compounds 1 to 7 appearing in Table I above were calculated by application of the method as just described; they have been listed in Table II below: […]

[4] = system: fibro-sarcomas induced by methyl cholanthrene, tumour cells in culture; assay: Tumour culture: inhibition of multiplication of methyl cholanthrene-induced fibro-sarcoma cells in vitro; type: cell-based; details: Rattus norvegicus, read-out: percentage of inhibition in comparison with the control; heading: percentage of inhibition in comparison with the control; B3 tumour culture, 10^-3 M
platelet aggregation = assay: Platelet anti-aggregant action (BORN's method); type: cell-based, human or rabbit
Description: The determination of the platelet aggregability was effected according to BORN's method, using a LABINTEC aggregometer.
Firstly a platelet-rich plasma (or PRP) and next a platelet-poor plasma (or PPP or PDP) are prepared from human blood or rabbit's blood, and the apparatus is calibrated.
Then the aggregating power of the plasma (PRP) is determined in relation to the PDP in the presence and in the absence of guanyl hydrazone. Thus it is possible to determine the percentage of inhibition of platelet aggregation as a function of the concentration. The curves obtained permit of determining a pI 50. […]

[5] = system: rat embryo cultures (muscle fragment); assay: Culture in explants: mitotic index of rat embryo cultures; type: cell-based; details: for mitotic index: 4th day, control culture 2.5%; for number of mitoses at the metaphase level: vs control culture
Description: This concerns rat embryo cultures kept for at least 6 months (muscle fragment). The explants are placed in culture in plasma coagulum (cock plasma). The cultures are fed with nutrient medium (Hanx+embryonary extract+decomplemented calf foetus serum). 24 hours after placing in plasma coagulum, the product to be tested is added at different dilutions. The cultures are examined on the 4th day and the counting of the number of mitoses is effected in the growth zone of the explants. The percentage of each of the phases of the mitosis is determined for the whole (mitotic index).

Rat fibroblast cultures = assay: Action upon cultures of trypsinised fibroblasts; type: cell-based; details: read-out: percentage of inhibition in comparison with the control, heading: percentage of inhibition in comparison with the control, 10^-4 M, 48 and 72 hours
Description: Rat fibroblast cultures are concerned and the strains have been maintained for several years.
For single-layer cultivation in Roux flasks, Trypsinisation at 0.25% detaches the cells from the flask on the one hand and from one another on the other hand.
The cells are distributed in lamellated tubes at the rate of 250,000 cells per ml., where they are deposited.
The products to be tested are introduced at different dilutions, and left to act for 48 and 72 hours.
Next, the counting of the cells is effected (10 fields for 5 blades) and the results obtained are compared with control tumours which have not received the product to be tested.

[6] = system: fibro-sarcoma induced by methyl cholanthrene; assay: Development of a fibro-sarcoma induced by methyl cholanthrene in vivo in the rat; details: daily 50 mg./kg in two doses, over three months, vs untreated rats
Description: as §1
2. Inhibiting action upon the development of a fibro-sarcoma induced by methyl cholanthrene "in vivo" in the rat.

ADN = details: cited from earlier work
[7] = system: synthesis of nucleic acids; details: cited from earlier work
[8] = system: leukaemias, Hodgkin's disease; details: cited from earlier work
[9] = phenoxyacetic acid corresponding to the numbered guanyl hydrazone, root growth, read-out: Corresponding phenoxyacetic acid pI 50 (converted)
[10] = 72 h, 10^-4 molar, 72nd hour after sub-culture, read-out: percentage of diminution of the number of cells in comparison with the control
[11] = 72 h, 72nd hour after sub-culture, read-out: percentage of diminution of the number of cells in comparison with the control
[12] = 50% inhibition of root growth, 24 hours, 27° C., darkness, read-out: pI 50 (guanyl hydrazones) (converted)
[13] = platelet-rich plasma, human blood or rabbit's blood, Table V, read-out: PI50 (platelet aggregation) (converted)
[14] = concentration of 10^-4 mol, read-out: retardation of the cellular multiplication

Row | pI 50 [3] | IC50 (platelet aggregation; [13]) | Structure (SMILES) | inhibition at 100 µM [2, 10] | inhibition at 10 µM [2, 11] | inhibition at 1 µM [2, 11] | IC50 (Lipidium sativum; [12]) | inhibiting activity (root growth, in words) (Lipidium sativum) | also measured
1 | – | – | O=C(O)COc1ccccc1 [1 (corresponding phenoxyacetic acid), reference compound] | – | – | – | – | – | IC50 (Lipidium sativum; [9]): 631 µM
2 | – | – | O=C(O)COc1ccccc1Cl [2 (corresponding phenoxyacetic acid), reference compound] | – | – | – | – | – | IC50 (Lipidium sativum; [9]): 112 µM
3 | – | – | N=C(N)NN=Cc1ccc([N+](=O)[O-])o1 [5-nitrofurfuraldehyde guanyl hydrazone] | – | – | – | – | – | anti-tumoral activity [1]: a certain anti-tumoral activity in the mouse
4 | – | – | Cc1ccccc1OCC(=O)O [8 (corresponding phenoxyacetic acid), reference compound] | – | – | – | – | – | IC50 (Lipidium sativum; [9]): 11 µM
5 | 4.90 | 1200 µM | N=C(N)NN=CCOc1ccccc1 [Compound 1] | 15.8% | 7.89% | 5.26% | 692 µM | – | inhibition at 1000 µM [4]: ~25%
6 | 4.94 | 603 µM | N=C(N)NN=CCOc1ccccc1Cl [Compound 2, o-chlorophenoxy acetaldehyde guanyl hydrazone] | 15.8% | 13.2% | 7.89% | 162 µM | – | –
7 | 4.70 | 490 µM | N=C(N)NN=CCOc1cccc(Cl)c1 [Compound 3] | 31.6% | 26.3% | 0% | 33.9 µM | great inhibiting activity | inhibition at 100 µM [2, 14]: > 30%
8 | 4.70 | 562 µM | N=C(N)NN=CCOc1ccc(Cl)cc1 [Compound 4] | 36.8% | 23.7% | 7.89% | 7.24 µM | great inhibiting activity | mitotic index [5]: 1.2%; number of mitoses at the metaphase level [5]: significant reduction of the number of mitoses at the metaphase level; inhibition at 100 µM (Rat fibroblast cultures): ~77%; inhibition at 100 µM [2, 14]: > 30%; inhibition at 1000 µM [4]: ~45%; pI 50 (guanyl hydrazones) (Lipidium sativum; 50% inhibition of root growth, 24 hours, 27° C., darkness): 5.14±0.08
9 | 4.94 | 1100 µM | COc1ccccc1OCC=NNC(=N)N [Compound 5, o-methoxy phenoxy acetaldehyde guanyl hydrazone] | 5.26% | 2.63% | 0% | 224 µM | – | –
10 | 5.16 | – | COc1cccc(OCC=NNC(=N)N)c1 [Compound 6] | 18.4% | 12.6% | 0% | 191 µM | – | –
11 | 4.50 | 1380 µM | COc1ccc(OCC=NNC(=N)N)cc1 [Compound 7] | 15.8% | 15.3% | 0% | 102 µM | – | –
12 | – | 525 µM | Cc1ccccc1OCC=NNC(=N)N [Compound 8] | 10.7% | 7.89% | 0% | 38.9 µM | great inhibiting activity | –
13 | – | 692 µM | Cc1cccc(OCC=NNC(=N)N)c1 [Compound 9] | 32.1% | 13.2% | 10.5% | 26.3 µM | great inhibiting activity | inhibition at 100 µM [2, 14]: > 30%
14 | – | 813 µM | Cc1ccc(OCC=NNC(=N)N)cc1 [Compound 10, p-methyl phenoxy acetaldehyde guanyl hydrazone] | 25% | 23.7% | 0% | 58.9 µM | – | –
15 | – | – | CC(C)c1ccccc1OCC=NNC(=N)N [Compound 11] | 78.6% | 42.1% | 18.4% | 39.8 µM | great inhibiting activity | mitotic index [5]: 1.9%; number of mitoses at the metaphase level [5]: significant reduction of the number of mitoses at the metaphase level; inhibition at 100 µM (Rat fibroblast cultures): ~100%; inhibition at 100 µM [2, 14]: > 30%; development of the tumours (weight estimations) [6]: clearly retarded
16 | – | 562 µM | N=C(N)NN=CCOc1ccc(Br)cc1 [Compound 12] | 57.1% | 40.4% | 0% | 2.88 µM | great inhibiting activity | inhibition at 100 µM [2, 14]: > 30%; development of the tumours (weight estimations) [6]: clearly retarded
17 | – | 977 µM | N=C(N)NN=CCOc1ccc(F)cc1 [Compound 13] | – | – | – | – | – | –
18 | – | – | CC(=O)Oc1ccccc1C(=O)O [Lysine acetylsalicylate, reference compound] | – | – | – | – | – | IC50 (platelet aggregation; Platelet, read-out: PI50 (platelet aggregation)): 51300 µM
19 | – | – | CC(C=NNC(=N)N)=NNC(=N)N [methyl-glyoxal-bis (guanyl hydrazone)] | – | – | – | – | – | complex formation with ADN (ADN): forms complexes with ADN; inhibition of nucleic acid synthesis [7]: inhibits the synthesis of nucleic acids; action in Hodgkin's disease ([8]; Hodgkin's disease): sometimes but rarely efficacious; action in acute myeloblastic and promyelocytary leukaemias ([8]; acute myeloblastic and promyelocytary leukaemias): action has been verified; action in acute transformations of chronic myeloid leukaemia and other leukaemias ([8]; acute transformations of chronic myeloid leukaemia and other leukaemias): less efficacious; side effects on administration ([8]; in vivo): various cutaneous, digestive and metabolic troubles, in particular hypoglycaemia
